Experimental data taken from patent US20020137929A1, “1 - (3-heterocyclylphenyl) isothiourea, -isourea, -guanidine and -amidine herbicidal agents” (Intellectual Property Department, BASF Aktiengesellschaft, priority 1998, published 2002).

Experiments:
[1] = system: ORYSAT (Rice, Tebonnet); assay: Postemergence herbicidal evaluation; type: in vivo, Oryza sativa, (L.) Tebonnet; conditions: postemergence
Procedure, shortened: (§1)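 Each compound, dispersed in an acetone/water mix (50/50) carrying 0.5% TWEEN 20, is nozzle-sprayed at 40 psi on approximately two-week-old seedlings at about 0.0156–0.500 kg/ha. Plants are assessed 4–5 weeks afterward on a 0–9 scale relative to control; duplicate tests are averaged.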

[2] = system: IPOHE (Morningglory, Ivyleaf); assay: Preemergence herbicidal evaluation; type: in vivo, Ipomoea hederacea; conditions: rated 4-5 weeks after treatment
Procedure, shortened: (§2)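 Seeds were mixed with potting soil and planted on about one inch of soil, then sprayed with test compound in aqueous acetone at about 0.0156 to 0.500 kg per hectare. Plants grew under standard greenhouse care and were visually rated 0-9 against untreated controls 4-5 weeks post-treatment.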

[3] = system: IPOHE (Morningglory, Ivyleaf); assay: Postemergence herbicidal evaluation; type: in vivo, Ipomoea hederacea; conditions: postemergence
Procedure, shortened: as §1

[4] = system: CHEAL (Lambsquarters, Common); assay: Preemergence herbicidal evaluation; type: in vivo, Chenopodium album; conditions: rated 4-5 weeks after treatment
Procedure, shortened: as §2

[5] = system: CHEAL (Lambsquarters, Common); assay: Postemergence herbicidal evaluation; type: in vivo, Chenopodium album; conditions: postemergence
Procedure, shortened: as §1

[6] = system: ABUTH (Velvetleaf); assay: Postemergence herbicidal evaluation; type: in vivo, Abutilon theophrasti; conditions: postemergence
Procedure, shortened: as §1

[7] = system: SETVI (Foxtail, Green); assay: Postemergence herbicidal evaluation; type: in vivo, Setaria viridis; conditions: postemergence
Procedure, shortened: as §1

[8] = system: CASOB (Sicklepod); assay: Preemergence herbicidal evaluation; type: in vivo, Cassia obtusifolia; conditions: rated 4-5 weeks after treatment
Procedure, shortened: as §2

[9] = system: ECHCG (Barnyardgrass); assay: Preemergence herbicidal evaluation; type: in vivo, Echinochloa crus-galli; conditions: rated 4-5 weeks after treatment
Procedure, shortened: as §2

[10] = system: ABUTH (Velvetleaf); assay: Preemergence herbicidal evaluation; type: in vivo, Abutilon theophrasti; conditions: rated 4-5 weeks after treatment
Procedure, shortened: as §2

[11] = system: ECHCG (Barnyardgrass); assay: Postemergence herbicidal evaluation; type: in vivo, Echinochloa crus-galli; conditions: postemergence
Procedure, shortened: as §1

[12] = system: ZEAMX (Corn, Field); assay: Postemergence herbicidal evaluation; type: in vivo, Zea mays; conditions: postemergence
Procedure, shortened: as §1

[13] = system: GLXMAW (Soybean, Williams); assay: Preemergence herbicidal evaluation; type: in vivo, Glycine max, (L.) Merr. cv Williams; conditions: rated 4-5 weeks after treatment
Procedure, shortened: as §2

[14] = system: ZEAMX (Corn, Field); assay: Preemergence herbicidal evaluation; type: in vivo, Zea mays; conditions: rated 4-5 weeks after treatment
Procedure, shortened: as §2

[15] = system: TRZAWR (Wheat, Winter, cv Riband); assay: Preemergence herbicidal evaluation; type: in vivo, Triticum aestivum; conditions: rated 4-5 weeks after treatment
Procedure, shortened: as §2

## Cn1c(C(F)(F)F)cc(=O)n(-c2cc(N=C3SCC(=O)N3C3CCCC3)c(Cl)cc2F)c1=O [Compound 166, 3-{4-Chloro-5-[(3-cyclopentyl-4-oxo-2-thiazolidinylidene)amino]-2-fluorophenyl}-1-methyl-6-(trifluoromethyl)-2,4(1H,3H)-pyrimidinedione]
[1]; rate 0.0156 kg/ha
  Herbicidal rating ORYSAT: 1.0
[1]; rate 0.0313 kg/ha
  Herbicidal rating ORYSAT: 0.5
[1]; rate 0.0625 kg/ha
  Herbicidal rating ORYSAT: 1.5
[1]; rate 0.1250 kg/ha
  Herbicidal rating ORYSAT: 2.0
[2]; 0.0156 kg/ha
  Preemergence herbicidal rating IPOHE: 0.0
[2]; 0.0313 kg/ha
  Preemergence herbicidal rating IPOHE: 3.0
[2]; 0.1250 kg/ha
  Preemergence herbicidal rating IPOHE: 2.0
[2]; 0.2500 kg/ha
  Preemergence herbicidal rating IPOHE: 6.0
[2]; 0.5000 kg/ha
  Preemergence herbicidal rating IPOHE: 8.0
[3]; rate 0.0156 kg/ha
  Herbicidal rating IPOHE: 0.0
[3]; rate 0.0313 kg/ha
  Herbicidal rating IPOHE: 2.0
[3]; rate 0.0625 kg/ha
  Herbicidal rating IPOHE: 2.0
[3]; rate 0.1250 kg/ha
  Herbicidal rating IPOHE: 7.0
[4]; 0.0156 kg/ha
  Preemergence herbicidal rating CHEAL: 1.0
[4]; 0.0313 kg/ha
  Preemergence herbicidal rating CHEAL: 0.0
[4]; 0.0625 kg/ha
  Preemergence herbicidal rating CHEAL: 3.0
[4]; 0.1250 kg/ha
  Preemergence herbicidal rating CHEAL: 9.0
[4]; 0.2500 kg/ha
  Preemergence herbicidal rating CHEAL: 9.0
[4]; 0.5000 kg/ha
  Preemergence herbicidal rating CHEAL: 9.0
[5]; rate 0.0156 kg/ha
  Herbicidal rating CHEAL: 0.0
[5]; rate 0.0313 kg/ha
  Herbicidal rating CHEAL: 1.0
[5]; rate 0.0625 kg/ha
  Herbicidal rating CHEAL: 4.0
[5]; rate 0.1250 kg/ha
  Herbicidal rating CHEAL: 7.0
[6]; rate 0.0156 kg/ha
  Herbicidal rating ABUTH: 2.0
[6]; rate 0.0313 kg/ha
  Herbicidal rating ABUTH: 1.0
[6]; rate 0.0625 kg/ha
  Herbicidal rating ABUTH: 3.0
[6]; rate 0.1250 kg/ha
  Herbicidal rating ABUTH: 9.0
[7]; rate 0.0156 kg/ha
  Herbicidal rating SETVI: 0.0
[7]; rate 0.0313 kg/ha
  Herbicidal rating SETVI: 0.0
[7]; rate 0.0625 kg/ha
  Herbicidal rating SETVI: 1.0
[7]; rate 0.1250 kg/ha
  Herbicidal rating SETVI: 2.0
[8]; 0.0156 kg/ha
  Preemergence herbicidal rating CASOB: 0.0
[8]; 0.0313 kg/ha
  Preemergence herbicidal rating CASOB: 0.0
[8]; 0.0625 kg/ha
  Preemergence herbicidal rating CASOB: 2.0
[8]; 0.1250 kg/ha
  Preemergence herbicidal rating CASOB: 0.0
[8]; 0.2500 kg/ha
  Preemergence herbicidal rating CASOB: 4.0
[8]; 0.5000 kg/ha
  Preemergence herbicidal rating CASOB: 6.0
[9]; 0.0156 kg/ha
  Preemergence herbicidal rating ECHCG: 0.0
[9]; 0.0313 kg/ha
  Preemergence herbicidal rating ECHCG: 0.0
[9]; 0.0625 kg/ha
  Preemergence herbicidal rating ECHCG: 1.0
[9]; 0.1250 kg/ha
  Preemergence herbicidal rating ECHCG: 0.0
[9]; 0.2500 kg/ha
  Preemergence herbicidal rating ECHCG: 0.0
[9]; 0.5000 kg/ha
  Preemergence herbicidal rating ECHCG: 4.0
[10]; 0.0156 kg/ha
  Preemergence herbicidal rating ABUTH: 0.0
[10]; 0.0313 kg/ha
  Preemergence herbicidal rating ABUTH: 2.0
[10]; 0.0625 kg/ha
  Preemergence herbicidal rating ABUTH: 1.0
[10]; 0.1250 kg/ha
  Preemergence herbicidal rating ABUTH: 7.0
[10]; 0.2500 kg/ha
  Preemergence herbicidal rating ABUTH: 9.0
[10]; 0.5000 kg/ha
  Preemergence herbicidal rating ABUTH: 9.0
[11]; rate 0.0156 kg/ha
  Herbicidal rating ECHCG: 0.0
[11]; rate 0.0313 kg/ha
  Herbicidal rating ECHCG: 0.0
[11]; rate 0.0625 kg/ha
  Herbicidal rating ECHCG: 1.0
[11]; rate 0.1250 kg/ha
  Herbicidal rating ECHCG: 2.0
[12]; rate 0.0156 kg/ha
  Herbicidal rating ZEAMX: 3.0
[12]; rate 0.0313 kg/ha
  Herbicidal rating ZEAMX: 3.0
[12]; rate 0.0625 kg/ha
  Herbicidal rating ZEAMX: 3.5
[12]; rate 0.1250 kg/ha
  Herbicidal rating ZEAMX: 4.5
[13]; 0.0156 kg/ha
  Preemergence herbicidal rating GLXMAW: 0.0
[13]; 0.0313 kg/ha
  Preemergence herbicidal rating GLXMAW: 2.0
[13]; 0.0625 kg/ha
  Preemergence herbicidal rating GLXMAW: 2.0
[13]; 0.1250 kg/ha
  Preemergence herbicidal rating GLXMAW: 2.0
[13]; 0.2500 kg/ha
  Preemergence herbicidal rating GLXMAW: 6.0
[13]; 0.5000 kg/ha
  Preemergence herbicidal rating GLXMAW: 6.0
[14]; 0.0156 kg/ha
  Preemergence herbicidal rating ZEAMX: 0.0
[14]; 0.0313 kg/ha
  Preemergence herbicidal rating ZEAMX: 0.0
[14]; 0.0625 kg/ha
  Preemergence herbicidal rating ZEAMX: 1.0
[14]; 0.1250 kg/ha
  Preemergence herbicidal rating ZEAMX: 1.0
[14]; 0.2500 kg/ha
  Preemergence herbicidal rating ZEAMX: 3.0
[14]; 0.5000 kg/ha
  Preemergence herbicidal rating ZEAMX: 6.0
[15]; 0.0156 kg/ha
  Preemergence herbicidal rating TRZAWR: 0.0
[15]; 0.0313 kg/ha
  Preemergence herbicidal rating TRZAWR: 0.0
[15]; 0.0625 kg/ha
  Preemergence herbicidal rating TRZAWR: 1.0
[15]; 0.1250 kg/ha
  Preemergence herbicidal rating TRZAWR: 1.0
[15]; 0.2500 kg/ha
  Preemergence herbicidal rating TRZAWR: 1.0
[15]; 0.5000 kg/ha
  Preemergence herbicidal rating TRZAWR: 3.0
